Test results as given in patent publication US12295936B2, “Immunomodulating urea azalides” (Zoetis Services LLC, priority 2020, dated 2025).

Assays:
Test in all cases: LPS-stimulated whole bovine blood assay, MSD cytokine detection
Assay type in all cases: cell-based
TNF-α = conditions: Bos taurus, LPS-stimulated bovine whole blood; read-out: TNF-α (IC50 μM)
Description: (§1) Therefore, a fresh whole bovine blood assay was developed with LPS as a stimulant (TLR-4 agonist) and with IL-1β and TNF-α as the read-out. Compounds of the invention were evaluated against a positive control for their ability to inhibit LPS-induced IL-1β and TNF-α as an overall evaluation of relative potency and modulation of target pathways (Table 6).
In the bovine whole blood in vitro screening assay the inhibition of TNFα as induced by stimulation by lipopolysaccharide (LPS) and as measured by half the maximal inhibitory concentration (IC50) is recognized as the primary biomarker of immunomodulation potency upon pretreatment with the compounds of the invention. IL-1β is a mediator of the inflammation response and is involved in a number of cellular activities including proliferation, differentiation and apoptosis. IL-1β is also released upon cellular stress or cytotoxicity or upon TLR stimulation. In the bovine whole blood assay the stimulation of IL-1β release upon increasing concentration of test compound is seen as a potential cellular toxicity signal as induced by the test compound. In order to estimate a therapeutic index from the in vitro assay a differential between the TNFα IC50 (immunomodulation potency) versus the perceived cellular toxicity concentration (IL-1β release or overstimulation) was utilized.

IL-1β = conditions: overstimulation of IL-1β, LPS-stimulated bovine whole blood
Description: as §1, with “The effect of multiple cytokines was not easily quantified using single cell types. Therefore,” for “Therefore,”
(§2) In order to correlate RNA sequencing data to cytokine changes the whole blood assay was utilized. […] The enhancement result represents an overall stimulation of cytokine levels due to cellular stress or potential toxicity with increasing concentrations of the compound, representing a typical bell shape response curve for immunomodulatory activity.
In the bovine whole blood in vitro screening assay the inhibition of TNFα as induced by stimulation by lipopolysaccharide (LPS) and as measured by half the maximal inhibitory concentration (IC50) is recognized as the primary biomarker of immunomodulation potency upon pretreatment with the compounds of the invention.

IL-6 = conditions: Bos taurus, LPS-stimulated bovine whole blood; read-out: IL-6 (IC50 μM)
Source text: as §2

| IC50 (TNF-α) | IC50 (IL-6) | SMILES | IL-1β OS of LPS (IL-1β) |
| --- | --- | --- | --- |
| 12 µM | 26 µM | CC[C@H]1OC(=O)[C@H](C)[C@@H](O[C@H]2C[C@@](C)(OC)[C@H](O)[C@H](C)O2)[C@H](C)[C@@H](O[C@@H]2O[C@H](C)C[C@H](N(C)C(=O)N(C)c3ccccc3)[C@H]2O)[C@](C)(O)C[C@@H](C)CN[C@H](C)[C@@H](O)[C@]1(C)O [Example B-3a, 1-((2S,3R,4S,6R)-2-(((2R,3S,4R,5R,8R,10R,11R,12S,13S,14R)-2-ethyl-3,4,10-trihydroxy-13-(((2R,4R,5R,6S)-5-hydroxy-4-methoxy-4,6-dimethyltetrahydro-2H-pyran-2-yl)oxy)-3,5,8,10,12,14-hexamethyl-15-oxo-1-oxa-6-azacyclopentadecan-11-yl)oxy)-3-hydroxy-6-methyltetrahydro-2H-pyran-4-yl)-1,3-dimethyl-3-phenylurea] | 16 µM |
| 156 µM | 143 µM | CC[C@H]1OC(=O)[C@H](C)[C@@H](O[C@H]2C[C@@](C)(OC)[C@@H](O)[C@H](C)O2)[C@H](C)[C@@H](O[C@@H]2O[C@H](C)C[C@H](N(C)C(=O)Nc3ccc(N(C)C)cc3)[C@H]2O)[C@](C)(O)C[C@@H](C)CN(C)[C@H](C)[C@@H](O)[C@]1(C)O [Example B-7, 3-(4-(dimethylamino)phenyl)-1-((2S,3R,4S,6R)-2-(((2R,3S,4R,5R,8R,10R,11R,12S,13S,14R)-2-ethyl-3,4,10-trihydroxy-13-(((2R,4R,5S,6S)-5-hydroxy-4-methoxy-4,6-dimethyltetrahydro-2H-pyran-2-yl)oxy)-3,5,6,8,10,12,14-heptamethyl-15-oxo-1-oxa-6-azacyclopentadecan-11-yl)oxy)-3-hydroxy-6-methyltetrahydro-2H-pyran-4-yl)-1-methylurea] | 100 µM |
| 20 µM | 30 µM | CCCSC[C@]1(O)[C@H](C)O[C@@H](O[C@H]2[C@H](C)[C@@H](O[C@@H]3O[C@H](C)C[C@H](N(C)C(=O)N(C)c4ccccc4)[C@H]3O)[C@](C)(O)C[C@@H](C)CN[C@H](C)[C@@H](O)[C@](C)(O)[C@@H](CC)OC(=O)[C@@H]2C)C[C@@]1(C)OC [Example D-2, 1-((2S,3R,4S,6R)-2-(((2R,3S,4R,5R,8R,10R,11R,12S,13S,14R)-2-ethyl-3,4,10-trihydroxy-13-(((2R,4R,5S,6S)-5-hydroxy-4-methoxy-4,6-dimethyl-5-((propylthio)methyl)tetrahydro-2H-pyran-2-yl)oxy)-3,5,8,10,12,14-hexamethyl-15-oxo-1-oxa-6-azacyclopentadecan-11-yl)oxy)-3-hydroxy-6-methyltetrahydro-2H-pyran-4-yl)-1,3-dimethyl-3-phenylurea] | 16 µM |
| 24 µM | 165 µM | CC[C@H]1OC(=O)[C@H](C)[C@@H](O[C@H]2C[C@@](C)(OC)[C@](O)(CNCCOC)[C@H](C)O2)[C@H](C)[C@@H](O[C@@H]2O[C@H](C)C[C@H](N(C)C(=O)N(C)c3ccccc3)[C@H]2O)[C@](C)(O)C[C@@H](C)CN[C@H](C)[C@@H](O)[C@]1(C)O [Example H-18, 1-((2S,3R,4S,6R)-2-(((2R,3S,4R,5R,8R,10R,11R,12S,13S,14R)-2-ethyl-3,4,10-trihydroxy-13-(((2R,4R,5S,6S)-5-hydroxy-4-methoxy-5-(((2-methoxyethyl)amino)methyl)-4,6-dimethyltetrahydro-2H-pyran-2-yl)oxy)-3,5,8,10,12,14-hexamethyl-15-oxo-1-oxa-6-azacyclopentadecan-11-yl)oxy)-3-hydroxy-6-methyltetrahydro-2H-pyran-4-yl)-1,3-dimethyl-3-phenylurea] | 40 µM |
| 70 µM | 181 µM | CC[C@H]1OC(=O)[C@H](C)[C@@H](O[C@H]2C[C@@](C)(OC)[C@](O)(CNCCCOC)[C@H](C)O2)[C@H](C)[C@@H](O[C@@H]2O[C@H](C)C[C@H](N(C)C(=O)N(C)c3ccccc3)[C@H]2O)[C@](C)(O)C[C@@H](C)CN[C@H](C)[C@@H](O)[C@]1(C)O [Example H-19, 1-((2S,3R,4S,6R)-2-(((2R,3S,4R,5R,8R,10R,11R,12S,13S,14R)-2-ethyl-3,4,10-trihydroxy-13-(((2R,4R,5S,6S)-5-hydroxy-4-methoxy-5-(((3-methoxypropyl)amino)methyl)-4,6-dimethyltetrahydro-2H-pyran-2-yl)oxy)-3,5,8,10,12,14-hexamethyl-15-oxo-1-oxa-6-azacyclopentadecan-11-yl)oxy)-3-hydroxy-6-methyltetrahydro-2H-pyran-4-yl)-1,3-dimethyl-3-phenylurea] | 100 µM |
| 31 µM | > 500 µM | CC[C@H]1OC(=O)[C@H](C)[C@@H](O[C@H]2C[C@@](C)(OC)[C@](O)(CNCCN(C)C)[C@H](C)O2)[C@H](C)[C@@H](O[C@@H]2O[C@H](C)C[C@H](N(C)C(=O)N(C)c3ccccc3)[C@H]2O)[C@](C)(O)C[C@@H](C)CN[C@H](C)[C@@H](O)[C@]1(C)O [Example H-20, 1-((2S,3R,4S,6R)-2-(((2R,3S,4R,5R,8R,10R,11R,12S,13S,14R)-13-(((2R,4R,5S,6S)-5-(((2-(dimethylamino)ethyl)amino)methyl)-5-hydroxy-4-methoxy-4,6-dimethyltetrahydro-2H-pyran-2-yl)oxy)-2-ethyl-3,4,10-trihydroxy-3,5,8,10,12,14-hexamethyl-15-oxo-1-oxa-6-azacyclopentadecan-11-yl)oxy)-3-hydroxy-6-methyltetrahydro-2H-pyran-4-yl)-1,3-dimethyl-3-phenylurea] | 6 µM |
| > 500 µM | > 500 µM | CCCN(C[C@]1(O)[C@H](C)O[C@@H](O[C@H]2[C@H](C)[C@@H](O[C@@H]3O[C@H](C)C[C@H](N(C)C(N)=O)[C@H]3O)[C@](C)(O)C[C@@H](C)CN[C@H](C)[C@@H](O)[C@](C)(O)[C@@H](CC)OC(=O)[C@@H]2C)C[C@@]1(C)OC)C(N)=O [Example H-22, 1-((2S,3R,4S,6R)-2-(((2R,3S,4R,5R,8R,10R,11R,12S,13S,14R)-2-ethyl-3,4,10-trihydroxy-13-(((2R,4R,5S,6S)-5-hydroxy-4-methoxy-4,6-dimethyl-5-((1-propylureido)methyl)tetrahydro-2H-pyran-2-yl)oxy)-3,5,8,10,12,14-hexamethyl-15-oxo-1-oxa-6-azacyclopentadecan-11-yl)oxy)-3-hydroxy-6-methyltetrahydro-2H-pyran-4-yl)-1-methylurea] | >500 µM |
| 30 µM | > 250 µM | CC[C@H]1OC(=O)[C@H](C)[C@@H](O[C@H]2C[C@@](C)(OC)[C@](O)(CNC)[C@H](C)O2)[C@H](C)[C@@H](O[C@@H]2O[C@H](C)C[C@H](N(C)C(=O)N(C)c3ccccc3)[C@H]2O)[C@](C)(O)C[C@@H](C)CN[C@H](C)[C@@H](O)[C@]1(C)O [Example H-26, 1-((2S,3R,4S,6R)-2-(((2R,3S,4R,5R,8R,10R,11R,12S,13S,14R)-2-ethyl-3,4,10-trihydroxy-13-(((2R,4R,5S,6S)-5-hydroxy-4-methoxy-4,6-dimethyl-5-((methylamino)methyl)tetrahydro-2H-pyran-2-yl)oxy)-3,5,8,10,12,14-hexamethyl-15-oxo-1-oxa-6-azacyclopentadecan-11-yl)oxy)-3-hydroxy-6-methyltetrahydro-2H-pyran-4-yl)-1,3-dimethyl-3-phenylurea] | 250 µM |
| 250 µM | > 250 µM | CC[C@H]1OC(=O)[C@H](C)[C@@H](O[C@H]2C[C@@](C)(OC)[C@](O)(CNCC3CCN(C)CC3)[C@H](C)O2)[C@H](C)[C@@H](O[C@@H]2O[C@H](C)C[C@H](N(C)C(=O)N(C)c3ccccc3)[C@H]2O)[C@](C)(O)C[C@@H](C)CN[C@H](C)[C@@H](O)[C@]1(C)O [Example H-30, 1-((2S,3R,4S,6R)-2-(((2R,3S,4R,5R,8R,10R,11R,12S,13S,14R)-2-ethyl-3,4,10-trihydroxy-13-(((2R,4R,5S,6S)-5-hydroxy-4-methoxy-4,6-dimethyl-5-((((1-methylpiperidin-4-yl)methyl)amino)methyl)tetrahydro-2H-pyran-2-yl)oxy)-3,5,8,10,12,14-hexamethyl-15-oxo-1-oxa-6-azacyclopentadecan-11-yl)oxy)-3-hydroxy-6-methyltetrahydro-2H-pyran-4-yl)-1,3-dimethyl-3-phenylurea] | 250 µM |
